Measurements taken from ChEMBL document CHEMBL2010789, “Identification of 3-acyl-2-phenylamino-1,4-dihydroquinolin-4-one derivatives as inhibitors of the phosphatase SerB653 in Porphyromonas gingivalis, implicated in periodontitis” (Bioorg Med Chem Lett, 2012).
≈ marks a conversion by molar mass, not a printed value. Calls of active or inactive are those of the source. The calls are words filed in the database; no cut-off is given here.

Experiments:
Porphyromonas gingivalis [1] = assay: Inhibition of Porphyromonas gingivalis recombinant SerB653 phosphatase expressed in Escherichia coli BL21 using phosphoserine as substrate at 50 uM after 1 hr by malachite green colorimetric assay
[2] = Inhibition of Porphyromonas gingivalis recombinant SerB653 phosphatase expressed in Escherichia coli BL21 using phosphoserine as substrate after 1 hr by malachite green colorimetric assay
[3] = Inhibition of Porphyromonas gingivalis recombinant SerB653 phosphatase expressed in Escherichia coli BL21 using phosphoserine as substrate measured every 10 secs by malachite green colorimetric assay
Porphyromonas gingivalis [4] = assay: Competitive inhibition of Porphyromonas gingivalis recombinant SerB653 phosphatase expressed in Escherichia coli BL21 using phosphoserine as substrate by Lineweaver-Burk plot analysis
Porphyromonas gingivalis [5] = assay: Antibacterial activity against Porphyromonas gingivalis ATCC 33277 after 2 hrs by broth microdilution method; type: functional; settings: ATCC 33277, 2 h

Row | Structure (SMILES) | inhibition (Porphyromonas gingivalis [1]) | IC50 [2] | Ki [3] | inhibition (Porphyromonas gingivalis [4]) | MIC (Porphyromonas gingivalis [5])
1 | CC(=O)c1c(Nc2ccc(F)cc2F)[nH]c2c(Cl)ccc(F)c2c1=O | 9.1% | – | – | – | –
2 | CC(C)C(=O)c1c(Nc2ccc(Cl)cc2Cl)[nH]c2c(Cl)ccc(Cl)c2c1=O | 97.7% | 8 µM | 2.9 µM | – | –
3 | CC(=O)c1c(Nc2ccc(C)cc2)[nH]c2c([N+](=O)[O-])cc(Cl)cc2c1=O | 2.2% | – | – | – | –
4 | CC(=O)c1c(Nc2ccc(Cl)cc2Cl)[nH]c2c(C(F)(F)F)cccc2c1=O | 96.3% | 18.6 µM | – | – | –
5 | CC(=O)c1c(Nc2cccc(C)c2)[nH]c2c(Cl)c(Cl)ccc2c1=O | 1.6% | – | – | – | –
6 | CC(=O)c1c(Nc2cc(C(F)(F)F)cc(C(F)(F)F)c2)[nH]c2c(F)ccc(F)c2c1=O | 95% | 19.4 µM | – | – | –
7 | O=C(c1c(Nc2cc(Cl)cc(Cl)c2)[nH]c2c(Cl)ccc([N+](=O)[O-])c2c1=O)C1CC1 | 99.4% | 17 µM | – | – | –
8 | CC(C)C(=O)c1c(Nc2cc(Cl)cc(Cl)c2)[nH]c2c(Cl)ccc(Cl)c2c1=O | 94.9% | 9.2 µM | 3.3 µM | – | –
9 | CC(=O)c1c(Nc2ccc(F)c(F)c2F)[nH]c2c(Cl)ccc(C)c2c1=O | 32.4% | – | – | – | –
10 | CC(C)CC(=O)c1c(Nc2ccc(Cl)cc2F)[nH]c2c(Cl)ccc([N+](=O)[O-])c2c1=O | 97.3% | 19.3 µM | – | – | –
11 | CC(=O)c1c(Nc2ccc(C(C)(C)C)cc2)[nH]c2c([N+](=O)[O-])cc(Cl)cc2c1=O | 0% | – | – | – | –
12 | CC(C)C(=O)c1c(Nc2ccc(Cl)cc2F)[nH]c2c(Cl)ccc([N+](=O)[O-])c2c1=O | 94.3% | 16.5 µM | – | – | –
13 | CC(=O)c1c(Nc2ccc(Cl)cc2Cl)[nH]c2c(C(F)(F)F)cc(Cl)cc2c1=O | 99% | 7 µM | 2.5 µM | – | –
14 | CC(=O)c1c(Nc2cc(F)ccc2F)[nH]c2c(F)ccc(F)c2c1=O | 7.9% | – | – | – | –
15 | CC(=O)c1c(Nc2cc(F)cc(F)c2)[nH]c2c([N+](=O)[O-])cc(Cl)cc2c1=O | 92.2% | 17.6 µM | – | – | –
16 | O=C(c1c(Nc2cc(F)cc(F)c2)[nH]c2c(Cl)ccc([N+](=O)[O-])c2c1=O)C1CC1 | 96.2% | 2.8 µM | 1 µM | Active | 0.006 µg/mL (≈ 0.0143 µM)
17 | CC(=O)c1c(Nc2cccc(Cl)c2Cl)[nH]c2c(Cl)ccc([N+](=O)[O-])c2c1=O | 96.7% | 19.6 µM | – | – | –
18 | CC(=O)c1c(Nc2ccc(C(F)(F)F)cc2)[nH]c2c(C(F)(F)F)cc(Cl)cc2c1=O | 97.7% | 7 µM | 2.5 µM | – | –
19 | CCC(=O)c1c(Nc2cccc(Cl)c2Cl)[nH]c2c(Cl)ccc([N+](=O)[O-])c2c1=O | 97.1% | 5.5 µM | 2 µM | – | 0.05 µg/mL (≈ 0.113 µM)
20 | COc1cccc(Nc2[nH]c3c([N+](=O)[O-])cc(Cl)cc3c(=O)c2C(C)=O)c1 | 0% | – | – | – | –
21 | CC(=O)c1c(Nc2ccccc2)[nH]c2c(Cl)c(Cl)ccc2c1=O | 4.8% | – | – | – | –

Row | Structure (SMILES) | inhibition (Porphyromonas gingivalis [1]) | IC50 [2] | Ki [3] | inhibition (Porphyromonas gingivalis [4]) | MIC (Porphyromonas gingivalis [5])
22 | CC(C)CC(=O)c1c(Nc2cc(Cl)cc(Cl)c2)[nH]c2c(Cl)ccc([N+](=O)[O-])c2c1=O | 99.1% | 18.7 µM | – | – | –
23 | CCC(=O)c1c(Nc2ccc(Cl)c(Cl)c2)[nH]c2c(Cl)ccc([N+](=O)[O-])c2c1=O | 98.5% | 11.6 µM | 4.1 µM | – | –
24 | CC(=O)c1c(Nc2ccc(Br)cc2)[nH]c2c(F)ccc(F)c2c1=O | 1.4% | – | – | – | –
25 | O=C(c1c(Nc2cccc(Cl)c2Cl)[nH]c2c(Cl)ccc([N+](=O)[O-])c2c1=O)C1CC1 | 98.5% | 12.6 µM | 4.5 µM | – | –
26 | CC(C)C(=O)c1c(Nc2ccc(F)cc2F)[nH]c2c(Cl)ccc([N+](=O)[O-])c2c1=O | 80.1% | 12.3 µM | – | – | –
27 | CC(=O)c1c(Nc2ccc(F)cc2F)[nH]c2c(C)ccc(Cl)c2c1=O | 2.3% | – | – | – | –
28 | CC(=O)c1c(Nc2cc(Cl)ccc2Cl)[nH]c2c(Cl)ccc(Cl)c2c1=O | 86.6% | 16.7 µM | – | – | –
29 | O=C(c1c(Nc2ccc(Cl)cc2F)[nH]c2c(Cl)ccc([N+](=O)[O-])c2c1=O)C1CC1 | 95.5% | 18.7 µM | – | – | –
30 | CC(=O)c1c(Nc2ccc(F)cc2F)[nH]c2c(F)ccc(F)c2c1=O | 0% | – | – | – | –
31 | O=C(c1c(Nc2cc(Cl)ccc2Cl)[nH]c2c(Cl)ccc([N+](=O)[O-])c2c1=O)C1CC1 | 98.2% | 18.7 µM | – | – | –
32 | COc1cccc(Nc2[nH]c3c(Cl)c(Cl)ccc3c(=O)c2C(C)=O)c1 | 3.6% | – | – | – | –
33 | CC(C)C(=O)c1c(Nc2cc(Cl)ccc2Cl)[nH]c2c(Cl)ccc([N+](=O)[O-])c2c1=O | 97.3% | 19 µM | – | – | –
34 | CC(C)CC(=O)c1c(Nc2cc(F)ccc2F)[nH]c2c(Cl)ccc(Cl)c2c1=O | 91% | 19.3 µM | – | – | –
35 | CC(C)CC(=O)c1c(Nc2cccc(Cl)c2Cl)[nH]c2c(Cl)ccc([N+](=O)[O-])c2c1=O | 98.6% | 18.9 µM | – | – | –
36 | CC(=O)c1c(Nc2cc(C(F)(F)F)cc(C(F)(F)F)c2)[nH]c2c(Cl)ccc(F)c2c1=O | 98.5% | 19.3 µM | – | – | –
37 | CC(C)C(=O)c1c(Nc2cc(Cl)cc(Cl)c2)[nH]c2c(Cl)ccc([N+](=O)[O-])c2c1=O | 99.1% | 17.9 µM | – | – | –
38 | CC(C)CC(=O)c1c(Nc2cc(F)cc(F)c2)[nH]c2c(Cl)ccc([N+](=O)[O-])c2c1=O | 97.5% | 16.3 µM | – | – | –
39 | CC(=O)c1c(Nc2cc(F)cc(F)c2)[nH]c2c(F)ccc(F)c2c1=O | 5.9% | – | – | – | –
40 | CCC(=O)c1c(Nc2cc(F)cc(F)c2)[nH]c2c(Cl)ccc([N+](=O)[O-])c2c1=O | 92.7% | 19.4 µM | – | – | –
41 | O=C(c1c(Nc2ccc(Cl)c(Cl)c2)[nH]c2c(Cl)ccc(Cl)c2c1=O)C1CC1 | 89.7% | 11.5 µM | 4.1 µM | – | –
42 | CC(=O)c1c(Nc2ccc(Cl)cc2F)[nH]c2c(Cl)ccc(C)c2c1=O | 24.5% | – | – | – | –

Row | Structure (SMILES) | inhibition (Porphyromonas gingivalis [1]) | IC50 [2] | Ki [3] | inhibition (Porphyromonas gingivalis [4]) | MIC (Porphyromonas gingivalis [5])
43 | CC(=O)c1c(Nc2ccc(Cl)cc2)[nH]c2c(C(F)(F)F)cc(Cl)cc2c1=O | 95.7% | 7.5 µM | 2.7 µM | – | –
44 | O=C(c1c(Nc2ccc(Cl)cc2Cl)[nH]c2c(Cl)ccc([N+](=O)[O-])c2c1=O)C1CC1 | 98.1% | 17.6 µM | – | – | –
45 | CC(C)CC(=O)c1c(Nc2cc(Cl)ccc2Cl)[nH]c2c(Cl)ccc([N+](=O)[O-])c2c1=O | 98.8% | 18.8 µM | – | – | –
46 | CC(=O)c1c(Nc2cc(Cl)cc(Cl)c2)[nH]c2c(C)ccc(Cl)c2c1=O | 8.6% | – | – | – | –
47 | CC(=O)c1c(Nc2cccc(F)c2C)[nH]c2c(F)ccc(F)c2c1=O | 0% | – | – | – | –
48 | CC(C)C(=O)c1c(Nc2cc(F)cc(F)c2)[nH]c2c(Cl)ccc([N+](=O)[O-])c2c1=O | 94.7% | 19.1 µM | – | – | –
49 | CCC(=O)c1c(Nc2cc(Cl)ccc2Cl)[nH]c2c(Cl)ccc([N+](=O)[O-])c2c1=O | 97.8% | 4 µM | 1.4 µM | – | 0.05 µg/mL (≈ 0.113 µM)
50 | CC(=O)c1c(Nc2ccc([N+](=O)[O-])cc2)[nH]c2c([N+](=O)[O-])cc(Cl)cc2c1=O | 87% | 14.5 µM | – | – | –
51 | CC(=O)c1c(Nc2cc(Cl)ccc2Cl)[nH]c2c(Cl)ccc([N+](=O)[O-])c2c1=O | 98.3% | 19 µM | – | – | –
52 | CCC(=O)c1c(Nc2cc(Cl)cc(Cl)c2)[nH]c2c(Cl)ccc([N+](=O)[O-])c2c1=O | 97.4% | 6.9 µM | 2.5 µM | – | –
53 | CC(=O)c1c(Nc2cc(Cl)cc(Cl)c2)[nH]c2c(Cl)ccc([N+](=O)[O-])c2c1=O | 99.3% | 18.8 µM | – | – | –
54 | COc1ccc(Nc2[nH]c3c([N+](=O)[O-])cc(Cl)cc3c(=O)c2C(C)=O)cc1 | 6.2% | – | – | – | –
55 | O=C(c1c(Nc2ccc(F)cc2F)[nH]c2c(Cl)ccc([N+](=O)[O-])c2c1=O)C1CC1 | 85.6% | 11.3 µM | 4 µM | – | –
56 | CC(=O)c1c(Nc2ccccc2)[nH]c2c([N+](=O)[O-])cc(Cl)cc2c1=O | 3.1% | – | – | – | –
57 | CC(=O)c1c(Nc2cc(F)cc(F)c2)[nH]c2c(Cl)c(Cl)ccc2c1=O | 93.5% | 18.6 µM | – | – | –
58 | CCC(=O)c1c(Nc2ccc(Cl)cc2F)[nH]c2c(Cl)ccc([N+](=O)[O-])c2c1=O | 94.9% | 19.8 µM | – | – | –
59 | CCC(=O)c1c(Nc2ccc(Cl)cc2Cl)[nH]c2c(Cl)ccc([N+](=O)[O-])c2c1=O | 97.4% | 19.6 µM | – | – | –
60 | CC(C)CC(=O)c1c(Nc2ccc(Cl)cc2Cl)[nH]c2c(Cl)ccc([N+](=O)[O-])c2c1=O | 97.8% | 19.6 µM | – | – | –
61 | CC(C)C(=O)c1c(Nc2cccc(Cl)c2Cl)[nH]c2c(Cl)ccc([N+](=O)[O-])c2c1=O | 96.3% | 19.1 µM | – | – | –
62 | CC(=O)c1c(Nc2ccc(F)cc2)[nH]c2c([N+](=O)[O-])cc(Cl)cc2c1=O | 9.3% | – | – | – | –
63 | CC(=O)c1c(Nc2ccccc2Cl)[nH]c2c(C(F)(F)F)cc(Cl)cc2c1=O | 89.1% | 16.8 µM | – | – | –
